Results: patent publication US9750255B2, “Agricultural or horticultural chemical, method of controlling plant diseases, and product for controlling plant diseases” (Kureha Corporation, priority 2013, dated 2017)

Legend:
[1] = test system: Septoria tritici; experiment: In vitro antimicrobial activity test, colony diameter on PDA plate, Septoria tritici; conditions: for Fungal growth inhibition rate (%) Measured value: 25° C., 14 days
[2] = test system: Fusarium graminearum; experiment: microbe, parasite or virus in culture; type: cell-based
[3] = test system: Penicilium italicum; experiment: In vitro antimicrobial activity test, colony diameter on PDA plate, Penicilium italicum
[4] = test system: Phaeosphaeria nodorum; experiment: In vitro antimicrobial activity test, colony diameter on PDA plate, Phaeosphaeria nodorum
[5] = test system: Microdochium nivale; experiment: In vitro antimicrobial activity test, colony diameter on PDA plate, Microdochium nivale
[6] = Zymoseptoria tritici, 336 h, read-out: Fungal growth inhibition rate (%) Measured value
[7] = Fusarium graminearum, 72 h, read-out: Fungal growth inhibition rate (%) Measured value
[8] = 72 h, read-out: Fungal growth inhibition rate (%) Measured value
[9] = Parastagonospora nodorum, 168 h, read-out: Fungal growth inhibition rate (%) Measured value
[10] = Microdochium nivale, 72 h, read-out: Fungal growth inhibition rate (%) Measured value

OC(Cc1ccccc1Cl)(Cn1nc[nH]c1=S)C1(Cl)CC1 (stereo not drawn) [Prothioconazole, prothioconazole]
inhibition at 0.01 ppm [1, 6]: 0% | inhibition at 0.039 ppm [1, 6]: 10% | inhibition at 0.156 ppm [1, 6]: 21% | inhibition at 0.625 ppm [1, 6]: 51% | inhibition at 2.5 ppm [1, 6]: 100%

Fc1ccc([C@]2(Cn3cncn3)O[C@H]2c2ccccc2Cl)cc1 (racemic) [Epoxiconazole, epoxiconazole]
inhibition at 0.01 ppm [2, 7]: 22% | inhibition at 0.04 ppm [2, 7]: 27% | inhibition at 0.16 ppm [2, 7]: 39% | inhibition at 0.63 ppm [2, 7]: 57% | inhibition at 2.5 ppm [2, 7]: 88%

CC(Cc1ccc(C(C)(C)C)cc1)CN1C[C@@H](C)O[C@@H](C)C1 (stereo partly drawn) [Fenpropimorph, fenpropimorph]
inhibition at 0.04 ppm [1, 6]: 16% | inhibition at 0.16 ppm [1, 6]: 21% | inhibition at 0.63 ppm [1, 6]: 23% | inhibition at 2.5 ppm [1, 6]: 42% | inhibition at 10 ppm [1, 6]: 45%

CC1(C)CCC(Cc2ccc(Cl)cc2)C1(O)Cn1cncn1 (stereo not drawn) [Metconazole, metconazole]
inhibition at 0.01 ppm [1, 6]: 0% | inhibition at 0.039 ppm [1, 6]: 0% | inhibition at 0.156 ppm [1, 6]: 11% | inhibition at 0.625 ppm [1, 6]: 56% | inhibition at 2.5 ppm [1, 6]: 98%

CC(C)(C)C(O)(CCc1ccc(Cl)cc1)Cn1cncn1 (stereo not drawn) [Tebuconazole, tebuconazole]
inhibition at 0.04 ppm [3, 8]: 3% | inhibition at 0.16 ppm [3, 8]: 30% | inhibition at 0.63 ppm [3, 8]: 68% | inhibition at 2.5 ppm [3, 8]: 87% | inhibition at 10 ppm [3, 8]: 100%

CC(C)C1CCC(Cc2ccc(Cl)cc2)C1(O)Cn1cncn1 (stereo not drawn) [Ipconazole, ipconazole]
inhibition at 0.01 ppm [4, 9]: 20% | inhibition at 0.04 ppm [4, 9]: 31% | inhibition at 0.16 ppm [4, 9]: 62% | inhibition at 0.63 ppm [4, 9]: 76%

CC(Cc1ccc(C(C)(C)C)cc1)CN1CCCCC1 (stereo not drawn) [Fenpropidine, fenpropidine]
Fungal growth inhibition rate (%) Measured value ([1]; Test Example 8, fenpropidine 0.04 ppm alone): 0% | Fungal growth inhibition rate (%) Measured value ([1]; Test Example 8, fenpropidine 0.16 ppm alone): 0% | Fungal growth inhibition rate (%) Measured value ([1]; Test Example 8, fenpropidine 0.63 ppm alone): 40% | Fungal growth inhibition rate (%) Measured value ([1]; Test Example 8, fenpropidine 2.50 ppm alone): 38% | Fungal growth inhibition rate (%) Measured value ([1]; Test Example 8, fenpropidine 10.00 ppm alone): 40%

CCCC1COC(Cn2cncn2)(c2ccc(Cl)cc2Cl)O1 (stereo not drawn) [Propiconazole, propiconazole]
inhibition at 0.156 ppm [5, 10]: 0% | inhibition at 0.625 ppm [5, 10]: 45% | inhibition at 2.5 ppm [5, 10]: 76%

COC(=O)C1(C)CCC(Cc2ccc(Cl)cc2)C1(O)Cn1cncn1 (stereo not drawn) [Compound (1), methyl 3-(4-chlorobenzyl)-2-hydroxy-1-methyl-2-(1H-1,2,4-triazole-1-ylmethyl)cyclopentane carbonate]
Fungal growth inhibition rate (%) Measured value ([5]; Test Example 4, compound (1) 0.313 ppm alone, 25° C., 3 days): 26% | Fungal growth inhibition rate (%) Measured value ([3]; Test Example 5, compound (1) 1.25 ppm alone, 25° C., 3 days): 83% | Fungal growth inhibition rate (%) Measured value ([1]; Test Example 1, compound (1) 0.005 ppm alone): 35% | Fungal growth inhibition rate (%) Measured value ([1]; Test Example 2, compound (1) 0.02 ppm alone): 3% | Fungal growth inhibition rate (%) Measured value ([1]; Test Example 7, compound (1) 1.25 ppm alone): 70% | Fungal growth inhibition rate (%) Measured value ([1]; Test Example 8, compound (1) 1.25 ppm alone): 77% | Fungal growth inhibition rate (%) Measured value ([4]; Test Example 6, compound (1) 1.25 ppm alone, 25° C., seven days): 89% | Fungal growth inhibition rate (%) Measured value ([2]; Test Example 3, compound (1) 1.25 ppm alone, 25° C., 3 days): 93%
